Test results as given in US20220363727A1, “ANTIBACTERIAL PEPTIDE DERIVED FROM ERYTHROCULTER ILISHAEFORMIS AND USE THEREOF” (SOOCHOW UNIVERSITY, priority 2020, published 2022).
Converted amounts (≈) assume the structure as drawn. Like-named read-outs stand apart in the source and are kept apart here. Bridge positions count the residues as written; N and C are the ends. Ends that are not written are not given here.

Experiments:
Type in all cases: cell-based
[1] = tested on: Aeromonas hydrophila (penicillin-resistant strain); experiment: Kinetic analysis of antibacterial action (CFU counts over time); settings: for Number of bacteria co-cultured with sample: LEAP-2 5×MIC 93.75 μg/mL
Protocol: Aeromonas hydrophila (penicillin-resistant strain) was cultured to the logarithmic phase and diluted with fresh nutrient broth medium to 10^5 CFU/mL. […] At each time point, 50 μL of bacterial solution was taken and diluted 1000 times with nutrient broth medium. Then 50 μL of the dilution was spread on a nutrient broth agarose plate. After culturing at 37° C. for 12 hours, the CFU was calculated.

V. parahaemolyticus = experiment: Checkerboard test for synergy of LEAP-2 and ampicillin; settings: Vibrio parahaemolyticus; for MIC used in combination: ampicillin and LEAP-2 used in combination
Protocol: (§1) 50 μL was added to each well, and uniformly mixed. […] 100 μL of bacterial solution was added to each well.

V. harveyi = experiment: as above; settings: Vibrio harveyi; for MIC used in combination: ampicillin and LEAP-2 used in combination
Protocol: as §1

Vibrio cholerae = experiment: MIC by two-fold dilution method
Protocol: (§2) The antibacterial activity of LEAP-2 from Erythroculter ilishaeformis (having the amino acid sequence as shown in SEQ ID NO: 1) against fish pathogens was tested by a two-fold dilution method. […] Aeromonas sobria, Aeromonas hydrophila, Vibrio harveyi, Vibrio parahaemolyticus, Vibrio anguillarum, Vibrio vulnificus, Vibrio splendidus and Vibrio cholerae were cultured in a nutrient broth medium to the logarithmic phase, and then diluted with fresh nutrient broth medium to 10^5 CFU/mL. Then, 50 μL of diluted bacterial solution was added to each well of the 96-well plate containing the prepared two-fold dilution of LEAP-2 from Erythroculter ilishaeformis. After culturing at 37° C. for 18 hours, the minimal inhibitory concentration (MIC) was measured.

Vibrio splendidus = experiment: microbe, parasite or virus in culture
Protocol: as §2

Vibrio parahaemolyticus = experiment: microbe, parasite or virus in culture
Protocol: as §2

Vibrio harveyi = experiment: microbe, parasite or virus in culture
Protocol: as §2

Vibrio vulnificus = experiment: microbe, parasite or virus in culture
Protocol: as §2

Aeromonas hydrophila = experiment: microbe, parasite or virus in culture
Protocol: as §2

Aeromonas sobria = experiment: microbe, parasite or virus in culture
Protocol: as §2

Vibrio anguillarum = experiment: microbe, parasite or virus in culture
Protocol: as §2

With `CC1(C)S[C@@H]2[C@H](NC(=O)[C@H](N)c3ccccc3)C(=O)N2[C@H]1C(=O)O` [Ampicillin] the “Number of bacteria co-cultured with sample” value (shortened to “Number”) ([1]; 0 min, ampicillin 1 mg/mL) was 67 ± 7.5 ×10^3, CFUs/mL, the “Number” value ([1]; 10 min, ampicillin 1 mg/mL) was 69 ± 8.1 ×10^3, CFUs/mL and the “Number” value ([1]; 20 min, ampicillin 1 mg/mL) was 70 ± 7.2 ×10^3, CFUs/mL. The “Number” value ([1]; 30 min, ampicillin 1 mg/mL) was 72 ± 6.9 ×10^3, CFUs/mL, the “Number” value ([1]; 45 min, ampicillin 1 mg/mL) was 85 ± 6.9 ×10^3, CFUs/mL and the “Number” value ([1]; 90 min, ampicillin 1 mg/mL) was 197 ± 12.6 ×10^3, CFUs/mL. The “Number” value ([1]; 120 min, ampicillin 1 mg/mL) was 378 ± 41.5 ×10^3, CFUs/mL, the “Number” value ([1]; 180 min, ampicillin 1 mg/mL) was 961 ± 87.3 ×10^3, CFUs/mL and the “CFU of Aeromonas hydrophila after 180 minutes of incubation” value ([1]; ampicillin 1 mg/mL, 2862.0 μM, 180 minutes) was 9.6×10^5 CFUs/mL. For the same molecule, the “CFU of Aeromonas hydrophila at start” value ([1]; ampicillin 1 mg/mL, 2862.0 μM, before incubation) was 6.7×10^4 CFUs/mL, the MIC (V. parahaemolyticus; read-out: MIC used alone) was 18.8 µg/mL and the FIC (V. parahaemolyticus; MIC in combination/MIC alone) was 0.25. The “MIC used in combination” value (V. parahaemolyticus) was 4.69 µg/mL, the MIC (V. harveyi; read-out: MIC used alone) was 37.5 µg/mL and the “MIC used in combination” value (V. harveyi) was 4.69 µg/mL. It also gave an MIC (Vibrio cholerae; 37° C., 18 hours, average of three experiments) greater than 200 µg/mL, an MIC (Vibrio cholerae; 18 h) greater than 200 µg/mL and an MIC (Vibrio splendidus; Vibrio splendidus, 37° C., 18 hours, average of three experiments) greater than 200 µg/mL. For the same molecule, the MIC (Vibrio splendidus; Vibrio splendidus, 37° C., 18 hours, average of three experiments, read-out: MIC) was greater than 200 µg/mL, the MIC (Vibrio parahaemolyticus; Vibrio parahaemolyticus, 37° C., 18 hours, average of three experiments, read-out: MIC) was 18.8 µg/mL (≈ 53.7 µM) and the MIC (Vibrio harveyi; Vibrio harveyi, 37° C., 18 hours, average of three experiments, read-out: MIC) was 37.5 µg/mL (≈ 107 µM). It also gave an MIC (Vibrio vulnificus; Vibrio vulnificus, 37° C., 18 hours, average of three experiments) greater than 200 µg/mL, an MIC (Vibrio vulnificus; Vibrio vulnificus, 37° C., 18 hours, average of three experiments, read-out: MIC) greater than 200 µg/mL and an MIC (Aeromonas hydrophila; Aeromonas hydrophila, 37° C., 18 hours, average of three experiments) greater than 200 µg/mL. It also gave an MIC (Aeromonas hydrophila; Aeromonas hydrophila, 37° C., 18 hours, average of three experiments, read-out: MIC) greater than 200 µg/mL, an MIC (Aeromonas sobria; Aeromonas sobria, 37° C., 18 hours, average of three experiments) greater than 200 µg/mL and an MIC (Aeromonas sobria; Aeromonas sobria, 37° C., 18 hours, average of three experiments, read-out: MIC) greater than 200 µg/mL. The MIC (Vibrio anguillarum; Vibrio anguillarum, 37° C., 18 hours, average of three experiments) was greater than 200 µg/mL and the MIC (Vibrio anguillarum; Vibrio anguillarum, 37° C., 18 hours, average of three experiments, read-out: MIC) was greater than 200 µg/mL.

With “MTPLWRIMLLFKPHALCQNNYACSTGLCRYGHCSALQTILS (disulfide 17-28, 23-33) [LEAP-2]” the “Number” value ([1]; 0 min, ampicillin 1 mg/mL) was 65 ± 5.3 ×10^3, CFUs/mL, the “time to kill all bacteria” value ([1]; 5×MIC, i.e., 20.2 μM) was no more than 60 min and the “Number” value ([1]; 10 min, ampicillin 1 mg/mL) was 59 ± 7.4 ×10^3, CFUs/mL. For the same molecule, the “Number” value ([1]; 20 min, ampicillin 1 mg/mL) was 40 ± 8.4 ×10^3, CFUs/mL, the “Number” value ([1]; 30 min, ampicillin 1 mg/mL) was 28 ± 5.9 ×10^3, CFUs/mL and the “Number” value ([1]; 45 min, ampicillin 1 mg/mL) was 11 ± 3.5 ×10^3, CFUs/mL. The “Number” value ([1]; 60 min, ampicillin 1 mg/mL) was 0 ×10^3, CFUs/mL, the “Number” value ([1]; 90 min, ampicillin 1 mg/mL) was 0 ×10^3, CFUs/mL and the “Number” value ([1]; 120 min, ampicillin 1 mg/mL) was 0 ×10^3, CFUs/mL. The “Number” value ([1]; 180 min, ampicillin 1 mg/mL) was 0 ×10^3, CFUs/mL, the “MIC used in combination” value (V. parahaemolyticus) was 18.75 µg/mL and the “MIC used in combination” value (V. harveyi) was 18.75 µg/mL. The “MIC (molar, in brackets)” value (Vibrio cholerae; converted from μg/mL) was “(8.1 μM)”, the MIC (Vibrio splendidus; 18 h) was 150 µg/mL and the “MIC (molar, in brackets)” value (Vibrio splendidus; Vibrio splendidus, converted from μg/mL) was “(32.2 μM)”. For the same molecule, the MIC (Vibrio parahaemolyticus; 18 h) was 75 µg/mL, the “MIC (molar, in brackets)” value (Vibrio parahaemolyticus; Vibrio parahaemolyticus, converted from μg/mL) was “(16.1 μM)” and the MIC (Vibrio harveyi; 18 h) was 75 µg/mL. The “MIC (molar, in brackets)” value (Vibrio harveyi; Vibrio harveyi, converted from μg/mL) was “(16.1 μM)”, the MIC (Vibrio vulnificus; 18 h) was 37.5 µg/mL and the “MIC (molar, in brackets)” value (Vibrio vulnificus; Vibrio vulnificus, converted from μg/mL) was “(8.1 μM)”. The MIC (Aeromonas hydrophila; 18 h) was 18.75 µg/mL, the “MIC (molar, in brackets)” value (Aeromonas hydrophila; Aeromonas hydrophila, converted from μg/mL) was “(4.0 μM)” and the MIC (Aeromonas sobria; 18 h) was 75 µg/mL. The “MIC (molar, in brackets)” value (Aeromonas sobria; Aeromonas sobria, converted from μg/mL) was “(16.1 μM)”, the MIC (Vibrio anguillarum; 18 h) was 150 µg/mL and the “MIC (molar, in brackets)” value (Vibrio anguillarum; Vibrio anguillarum, converted from μg/mL) was “(32.2 μM)”.
